From ChEMBL document CHEMBL6109152, “Harnessing the SPOP E3 Ubiquitin Ligase via a Bridged Proteolysis Targeting Chimera (PROTAC) Strategy for Targeted Protein Degradation” (J Med Chem, 2025)
Activity calls are given as the source filed them. The calls are words filed in the database; no cut-off is given here.

Tests used:
[1] = molecular target: T1, Speckle-type POZ protein-Bromodomain-containing protein 4 (Homo sapiens, UniProt O60885+O43791); experiment: PROTAC activity at SPOP/BRD4-L in human HT-29 cells assessed as induction of BRD4 long isoform degradation at 0.5 to 5 uM incubated for 24 hrs by Western blotting analysis; format: cell-based; details: dose 0.5-5 µM
T1 sequence (O43791 whole entry, looked up, other chains not shown, canonical isoform): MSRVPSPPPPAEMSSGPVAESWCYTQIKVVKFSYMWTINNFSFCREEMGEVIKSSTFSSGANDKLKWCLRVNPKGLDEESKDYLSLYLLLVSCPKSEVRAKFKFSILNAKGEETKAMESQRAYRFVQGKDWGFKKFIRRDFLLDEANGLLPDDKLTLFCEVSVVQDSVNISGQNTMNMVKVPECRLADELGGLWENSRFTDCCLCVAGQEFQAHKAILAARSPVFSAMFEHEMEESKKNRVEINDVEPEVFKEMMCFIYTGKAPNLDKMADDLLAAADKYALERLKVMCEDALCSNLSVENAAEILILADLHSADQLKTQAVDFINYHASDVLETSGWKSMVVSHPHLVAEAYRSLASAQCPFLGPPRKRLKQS

[2] = molecular target: T1, Speckle-type POZ protein-Bromodomain-containing protein 4; experiment: PROTAC activity at SPOP/BRD4-S in human HT-29 cells assessed as induction of BRD4 short isoform degradation at 0.5 to 5 uM incubated for 24 hrs by Western blotting analysis; format: cell-based; details: dose 0.5-5 µM
[3] = molecular target: T1, Speckle-type POZ protein-Bromodomain-containing protein 4; experiment: PROTAC activity at SPOP/BRD4-S in human HT-29 cells assessed as induction of BRD4 short isoform degradation at 5 uM incubated for 24 hrs by Western blotting analysis relative to control; format: cell-based
HT-29 [4] = experiment: Effect on BRD4 long isoform mRNA expression level in human HT-29 cells at 5 uM incubated for 24 hrs by RT-qPCR analysis; format: functional, cell-based
HT-29 [5] = experiment: Effect on BRD4 short isoform mRNA expression level in human HT-29 cells at 5 uM incubated for 24 hrs by RT-qPCR analysis; format: functional, cell-based
HT-29 [6] = experiment: Effect on BRD3 mRNA expression level in human HT-29 cells at 5 uM incubated for 24 hrs by RT-qPCR analysis; format: functional, cell-based
HT-29 [7] = experiment: Effect on BRD2 mRNA expression level in human HT-29 cells at 5 uM incubated for 24 hrs by RT-qPCR analysis; format: functional, cell-based
HT-29 [8] = experiment: Effect on c-MYC mRNA expression level in human HT-29 cells at 5 uM incubated for 24 hrs by RT-qPCR analysis; format: functional, cell-based
HT-29 [9] = experiment: Antiproliferative activity against human HT-29 cells assessed as reduction in cell growth up to 10 uM incubated for 3 days by WST-8 reagent based assay; format: functional; details: time 3.0 day
HT-29 [10] = experiment: Binding affinity to BRD4-S/GLP/SPOP in human HT-29 cells assessed as compound-BRD4-GLP-SPOP quaternary complex formation at 20 to 100 uM incubated for 1 hrs by pulldown based Western blot analysis; format: cell-based; details: dose 20-100 µM
HEK293T = experiment: Binding affinity to BRD4-S/GLP/SPOP in HEK293T cells assessed as compound-BRD4-GLP-SPOP quaternary complex formation at 20 to 100 uM incubated for 1 hrs by pulldown based Western blot analysis; format: cell-based; details: Homo sapiens, dose 20-100 µM

| Structure (SMILES) | Activity [1] | Activity [2] | further results |
| --- | --- | --- | --- |
| COc1cc2c(NC3CCN(CCCC(=O)NCCCCCCCCNC(=O)C[C@@H]4N=C(c5ccc(Cl)cc5)c5c(sc(C)c5C)-n5c(C)nnc54)CC3)cc(N3CCOCC3)nc2cc1OCCCN1CCCC1 | inactive | Active |  |
| COc1cc2c(NC3CCN(CCCC(=O)NCCCCCCCCCCNC(=O)C[C@H]4N=C(c5ccc(Cl)cc5)c5c(sc(C)c5C)-n5c(C)nnc54)CC3)cc(N3CCOCC3)nc2cc1OCCCN1CCCC1 |  |  | Activity [3]: inactive; Activity (HT-29 [4]): inactive; Activity (HT-29 [5]): inactive; Activity (HT-29 [6]): inactive; Activity (HT-29 [7]): inactive; Activity (HT-29 [8]): inactive; Activity (HT-29 [9]): inactive |
| COc1cc2c(N(C)C3CCN(CCCC(=O)NCCCCCCCCCCNC(=O)C[C@@H]4N=C(c5ccc(Cl)cc5)c5c(sc(C)c5C)-n5c(C)nnc54)CC3)cc(N3CCOCC3)nc2cc1OCCCN1CCCC1 |  |  | Activity [3]: inactive; Activity (HT-29 [4]): inactive; Activity (HT-29 [5]): inactive; Activity (HT-29 [6]): inactive; Activity (HT-29 [7]): inactive; Activity (HT-29 [8]): inactive; Activity (HT-29 [9]): inactive |
| COc1cc2c(NC3CCN(CCCC(=O)NCCCCCCCNC(=O)C[C@@H]4N=C(c5ccc(Cl)cc5)c5c(sc(C)c5C)-n5c(C)nnc54)CC3)cc(N3CCOCC3)nc2cc1OCCCN1CCCC1 | inactive | inactive |  |
| COc1cc2c(NC3CCN(CCCC(=O)NCCCCCCCCCNC(=O)C[C@@H]4N=C(c5ccc(Cl)cc5)c5c(sc(C)c5C)-n5c(C)nnc54)CC3)cc(N3CCOCC3)nc2cc1OCCCN1CCCC1 | inactive | Active |  |
| COc1cc2c(NC3CCN(CCCC(=O)NCCCCCCCCCCNC(=O)C[C@@H]4N=C(c5ccc(NC(=O)CCOCCOCCOCCOCCOCCOCCNC(=O)CCCC[C@@H]6SC[C@@H]7NC(=O)N[C@@H]76)cc5)c5c(sc(C)c5C)-n5c(C)nnc54)CC3)cc(N3CCOCC3)nc2cc1OCCCN1CCCC1 |  |  | Activity (HT-29 [10]): Active; Activity (HEK293T): Active |

Continued, in another order:

| Activity [1] | Activity [2] | Structure (SMILES) | further results |
| --- | --- | --- | --- |
| inactive | inactive | COc1cc2c(NC3CCN(CCCC(=O)NCCCCCCNC(=O)C[C@@H]4N=C(c5ccc(Cl)cc5)c5c(sc(C)c5C)-n5c(C)nnc54)CC3)cc(N3CCOCC3)nc2cc1OCCCN1CCCC1 |  |
| inactive | inactive | COc1cc2c(NC3CCN(CCCC(=O)NCCCCNC(=O)C[C@@H]4N=C(c5ccc(Cl)cc5)c5c(sc(C)c5C)-n5c(C)nnc54)CC3)cc(N3CCOCC3)nc2cc1OCCCN1CCCC1 |  |
| inactive | inactive | COc1cc2c(NC3CCN(CCCC(=O)NCCNC(=O)C[C@@H]4N=C(c5ccc(Cl)cc5)c5c(sc(C)c5C)-n5c(C)nnc54)CC3)cc(N3CCOCC3)nc2cc1OCCCN1CCCC1 |  |
| inactive | inactive | COc1cc2c(NC3CCN(CCCC(=O)NCCCCCNC(=O)C[C@@H]4N=C(c5ccc(Cl)cc5)c5c(sc(C)c5C)-n5c(C)nnc54)CC3)cc(N3CCOCC3)nc2cc1OCCCN1CCCC1 |  |
| inactive | inactive | COc1cc2c(NC3CCN(CCCC(=O)NCCCNC(=O)C[C@@H]4N=C(c5ccc(Cl)cc5)c5c(sc(C)c5C)-n5c(C)nnc54)CC3)cc(N3CCOCC3)nc2cc1OCCCN1CCCC1 |  |
